Laboratory results as given in paper PMC9021288 (Nature Communications, 2022).
“And” between values parts separate entries of the source, which are not always exact repeats. Equal entries are not always repeated.

Experiments:
[1] = system: P. falciparum (NF54-HGL) stage V gametocytes fed to A. stephensi; assay: Transmission-blocking mosquito feeding assay (oocyst luminescence); format: cell-based, Plasmodium falciparum
Experimental: The transmission-blocking activity of compounds was determined as described previously. Briefly, NF54-HGL parasites were set up at 1% parasitemia in a semi-automated shaker system at 5% hematocrit. […] Eight days after the feed, luminescence was quantified to determine oocyst intensity.

[2] = system: control-cKD P. falciparum; assay: Drug sensitivity of control conditional knockdown parasites; format: cell-based, Plasmodium falciparum; settings: 0 nM vs 500 nM aTc
Experimental: Replication assays were performed using a SYBR Green method as described previously. Briefly, asynchronous parasites were diluted to 0.83% parasitemia, 3% hematocrit in 30 µl medium, and added to 30 µl of diluted compounds in medium (0.1% DMSO final concentration) in black 384-wells plates. After a 72-h incubation, 30 µl of SYBR Green diluted in lysis buffer was added according to the manufacturer’s protocol (Life Technologies). Fluorescence intensity was measured on a BioTek Synergy 2 Plate Reader after 1-h incubation and was normalized to a DMSO control (100% growth) and DHA- or epoxomicin-treatment (no growth). […] Parasite survival was assessed by flow cytometry on an Accuri C6 (BD Biosciences) with BD C6 Plus software using SYBR Green and MitoTracker Deep Red FM (Life Technologies) as nuclear stain and vital dye, respectively, and data were analyzed using FlowJo (10.5.0). […] Luminescence was measured after 72 h using the Renilla-Glo(R) Luciferase Assay System (Promega E2750) and the GlomAX® Discover Multimode Microplate Reader (Promega). The luminescence values were normalized to DMSO vehicle (100% growth) and 200 nM chloroquine-treated (no growth) samples as controls.

[3] = system: mouse primary hepatocytes; assay: Hepatocyte stability, mouse; format: in vitro ADME
rat primary hepatocytes = assay: Hepatocyte stability, rat; format: in vitro ADME
[4] = system: human primary hepatocytes; assay: Metabolite identification in human hepatocyte relay assay
Text: (§1) Briefly, cryopreserved human primary hepatocytes were thawed and cultured as described above.

human recombinant CYP2B6 = target: T1, human recombinant CYP2B6 (Homo sapiens, UniProt P20813); assay: CYP reaction phenotyping; format: in vitro ADME
T1 construct: purchased Bactosomes (assay run at Cyprotex)
T1 sequence (P20813 1-491): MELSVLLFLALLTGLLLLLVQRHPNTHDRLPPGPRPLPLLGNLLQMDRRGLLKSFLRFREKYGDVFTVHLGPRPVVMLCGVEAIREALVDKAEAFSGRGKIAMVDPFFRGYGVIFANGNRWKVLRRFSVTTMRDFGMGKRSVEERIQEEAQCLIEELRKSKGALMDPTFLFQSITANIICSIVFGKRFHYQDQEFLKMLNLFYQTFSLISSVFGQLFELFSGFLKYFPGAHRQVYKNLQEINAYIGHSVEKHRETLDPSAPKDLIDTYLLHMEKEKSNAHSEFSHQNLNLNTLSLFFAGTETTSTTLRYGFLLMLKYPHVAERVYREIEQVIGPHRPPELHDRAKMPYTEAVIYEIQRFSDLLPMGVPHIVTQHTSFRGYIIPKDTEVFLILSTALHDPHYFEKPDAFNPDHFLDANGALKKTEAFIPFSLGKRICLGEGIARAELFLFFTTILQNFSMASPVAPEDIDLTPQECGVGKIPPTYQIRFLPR
Experimental: In vitro CYP reaction phenotyping was performed at Cyprotex (Alderly Park, United Kingdom). […] The remaining test compound at each time point was analyzed by LC-MS/MS.

Renal excretion in rats = format: in vivo, rat
Experimental: A blood sample from the saphenous vein was collected into heparinized capillary tubes at multiple intervals between 0.25 and 24 h after dosing. Subsequently, samples were spun down at 1640 g for 5-10 min at 4 °C within 30 min after collection and plasma was collected. […] Urine was collected following an intravenous dose in both rat and dog, allowing renal clearance to be estimated. Human renal clearance was estimated from dog renal clearance as previously described[40] and other human PK parameters were predicted using allometric scaling and/or in vitro clearance data. PK parameters were calculated by naïve pooled approach using WinNonLin software (Phoenix, version 6.3).

[5] = system: human primary hepatocytes; assay: Primary hepatocyte viability (CellTiter-Blue), human; format: cell-based; settings: for %Viability: Human primary hepatocytes
Experimental: Safety studies were performed by commercial services using their standard protocols. […] Genotoxicity was investigated using the Ames test (Bacterial Reverse Mutation Assay) (Covance Laboratories Ltd, North Yorkshire, England). In vitro mammalian cell micronucleus screening assay was studied in human peripheral blood lymphocytes (BioReliance Corporation, Rockville, USA). Cardiotoxicity was determined against the hERG channel in an automated patch clamp assay using the Qpatch or against the hNaV 1.5, hKV 1.5 and hCaV 1.2 using a manual patch-clamp technique (Metrion Biosciences, Cambridge, UK). Cytotoxicity in human and rat primary hepatocytes was assessed using the CellTiter-Blue assay performed by commercial services (KaLy-Cell). The viability of HepG2 cells was monitored through the addition of 1 mM resazurin. Following 6 h incubation, the relative amount of reduced resazurin was detected in a fluorimeter and compared to the assay controls (vehicle: 0.1% DMSO and positive control: 10 µM puromycin).

[6] = Human hepatocyte clearance (relay assay); settings: human, hepatocytes
Text: as §1

C[C@@H](CNC(=O)[C@H](O)C(C)(C)CO)NC(=O)c1cc(F)c(F)cc1F [MMV693183]
midgut infection ([1]; 1 µM directly at the time of the mosquito feed): did not inhibit midgut infection
IC50 ([1]; gametocytes treated 24 h before feeding to A. stephensi, read-out: IC50 oocyst formation): 38 nM
IC50 change upon knockdown [2]: no difference in sensitivity
Compound Remaining (% of 0 min) ([3]; 0 min): 100%
Compound Remaining (% of 0 min) ([3]; 5 min): 114%
Compound Remaining (% of 0 min) ([3]; 10 min): 109%
Compound Remaining (% of 0 min) ([3]; 20 min): 103%
Compound Remaining (% of 0 min) ([3]; 40 min): 101%
Compound Remaining (% of 0 min) ([3]; 60 min): 105%
Compound Remaining (% of 0 min) (rat primary hepatocytes; 0 min): 100%
Compound Remaining (% of 0 min) (rat primary hepatocytes; 5 min): 96.2%
Compound Remaining (% of 0 min) (rat primary hepatocytes; 10 min): 97.1%
Compound Remaining (% of 0 min) (rat primary hepatocytes; 20 min): 97.8%
Compound Remaining (% of 0 min) (rat primary hepatocytes; 40 min): 92.7%
Compound Remaining (% of 0 min) (rat primary hepatocytes; 60 min): 89.2%
In vitro (MS response) [4]: 85%
Compound remaining (0 min = 100) (human recombinant CYP2B6; Incubation time (minutes) 0): 100
Compound remaining (0 min = 100) (human recombinant CYP2B6; Incubation time (minutes) 5): 101
Compound remaining (0 min = 100) (human recombinant CYP2B6; Incubation time (minutes) 15): 104
Compound remaining (0 min = 100) (human recombinant CYP2B6; Incubation time (minutes) 30): 97.8
Compound remaining (0 min = 100) (human recombinant CYP2B6; Incubation time (minutes) 45): 97.9
Urine fraction (Renal excretion in rats; Mean): 0.36
Observed renal plasma clearance (Renal excretion in rats; Rat): 7.7 mL/min/kg
Concentration corrected for dilution (Renal excretion in rats; rat urine after IV dosing, 400x diluted samples, individual rats R4, R5, R6): 27920.0 ng/mL and 106400.0 ng/mL and 15600.0 ng/mL
drug eliminated in urine (Renal excretion in rats; rats, i.v. 3 mg/kg): 36-40%
%Viability ([5]; Lot R1323T, 0.1 µM): 98%
%Viability ([5]; Lot R1323T, 0.5 µM): 92%
%Viability ([5]; Lot R1323T, 1 µM): 88%
%Viability ([5]; Lot R1323T, 5 µM): 92%
%Viability ([5]; Lot R1323T, 10 µM): 99%
%Viability ([5]; Lot S1552T, 0.1 µM): 98%
%Viability ([5]; Lot S1552T, 0.5 µM): 98%
%Viability ([5]; Lot S1552T, 1 µM): 102%
%Viability ([5]; Lot S1552T, 5 µM): 97%
%Viability ([5]; Lot S1552T, 10 µM): 104%
IC50 ([5]; primary human hepatocytes): > 10000 nM

C[C@@H](CNC(=O)[C@H](O)C(C)(C)CO)NC(=O)c1cc(C#N)ccc1F [MMV693182]
hepatocyte CLint [6]: 0.2 µL/min/1e6 cells
